Data set [1] in a line: IV/PO pharmacokinetic study in dogs. Type of data set: in vivo, male beagle dogs. On the set-up: AUC(0-t): concentration or dose not given beside the values. The settings on record: dog; for AUC(0-t): read-out: AUClast Mean. How it is done: Each rat or dog PK study began with formulation of the test compound. Appropriate masses of each test compound were added into a volume of vehicle (e.g. 5% sodium bicarbonate, 5% dextrose in H2O) such that the final concentration of each compound was appropriate to be dosed at 2 mL/kg. Although a homogenous suspension were acceptable for oral dosing, intravenous dosing solutions were sterile-filtered (0.2 μm) prior to dosing to ensure no particulates were administered.
In the dog study, male beagle dogs (3 per route) housed at Agilux Laboratories (Worcester, Mass.) and weighing between 7-12 kg received either a single oral gavage or a single intravenous (via indwelling catheter) dose of the dosing solution. The final dose was typically 0.1-2 mg/kg. Serial blood samples were harvested via direct venipuncture at 3 minutes, 15 minutes, 30 minutes, 1 hour, 2 hours, 4 hours, 6 hours, 8 hours, 12 hours, and 24 hours post-dose. All samples were collected manually into microtainer tubes containing EDTA as the anticoagulant and were processed to plasma by refrigerated centrifugation.
Plasma samples were extracted with 3 volumes of MeCN containing a suitable internal standard. Extracts were reconstituted into 3 volumes of water containing 1% formic acid, and analyzed via HPLC-coupled MS/MS. Plasma concentration-time data were analyzed using the Phoenix software (Pharsight Corp., St. Louis, Mo.) to calculate pharmacokinetic parameters.
Plasma clearance was determined from the intravenous arm of the study, and represents the rate at which plasma is cleared of drug. It is equal to the dose divided by the area under the plasma concentration-time curve. In addition to plasma clearance, it is also essential for an orally administered drug to reach efficacious systemic levels following oral delivery. Oral bioavailability is a measurement of plasma exposures following oral administration relative to exposures following intravenous administration.

Another data set concerns the target T1, NEP (Rattus norvegicus, UniProt P07861).
T1 construct: Pre-cannulated male Sprague-Dawley rats (3 per compound evaluated) between 8 and 10 weeks of age were obtained from Harlan Laboratories; from tissue; host or cells: whole animal: conscious male Sprague-Dawley rats (Harlan Laboratories)
T1 sequence (P07861 1-750): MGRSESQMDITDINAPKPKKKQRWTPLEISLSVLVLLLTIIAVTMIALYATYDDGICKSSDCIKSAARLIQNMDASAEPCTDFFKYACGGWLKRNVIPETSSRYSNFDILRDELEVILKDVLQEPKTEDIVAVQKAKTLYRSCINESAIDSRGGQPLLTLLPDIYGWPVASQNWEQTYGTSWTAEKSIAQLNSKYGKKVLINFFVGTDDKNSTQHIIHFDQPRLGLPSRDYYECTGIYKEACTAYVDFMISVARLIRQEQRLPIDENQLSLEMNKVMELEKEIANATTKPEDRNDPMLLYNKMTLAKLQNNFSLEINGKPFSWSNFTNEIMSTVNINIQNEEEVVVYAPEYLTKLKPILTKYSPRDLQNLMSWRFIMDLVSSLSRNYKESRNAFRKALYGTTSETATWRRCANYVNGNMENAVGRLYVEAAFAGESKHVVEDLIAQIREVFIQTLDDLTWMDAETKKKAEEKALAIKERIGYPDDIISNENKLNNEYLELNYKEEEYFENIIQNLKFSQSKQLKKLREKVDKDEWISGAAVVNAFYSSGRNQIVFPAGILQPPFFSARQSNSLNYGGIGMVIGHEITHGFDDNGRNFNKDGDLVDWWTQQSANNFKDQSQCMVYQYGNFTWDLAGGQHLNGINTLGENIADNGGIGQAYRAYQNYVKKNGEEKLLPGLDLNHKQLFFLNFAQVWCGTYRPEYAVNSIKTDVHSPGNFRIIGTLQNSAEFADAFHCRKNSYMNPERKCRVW
The experiment in a line: PK-PD assay for NEP activity in conscious normotensive Sprague-Dawley rats (plasma cGMP after ANP bolus). Type of data set: in vivo, male Sprague-Dawley rats. The settings on record: 3 mg/kg oral. How it is done:
Appropriate masses of each test compound were added into a volume of vehicle (e.g. 5% sodium bicarbonate, 5% dextrose in H2O) such that the final concentration of each compound was appropriate to be dosed at 2 mL/kg. Note that a homogenous suspension was deemed to be acceptable for oral dosing.
Pre-cannulated male Sprague-Dawley rats (3 per compound evaluated) between 8 and 10 weeks of age were obtained from Harlan Laboratories (Indianapolis, Ind.). Rats received a single oral gavage of the dosing solution. The final dose was typically in the range of 3-30 mg/kg. Serial blood samples were harvested via the cannula implanted in the jugular vein at 3 minutes, 15 minutes, 35 minutes, 45 minutes, 1 hour, 2 hours, 4 hours, 6 hours, and 24 hours post-dose. Samples were collected into microtainer tubes containing EDTA as the anticoagulant and were processed to plasma by refrigerated centrifugation. Fifteen minutes prior to the 45 minute, 2 hour, 4 hour, 6 hour, and 24 hour samples, an IV bolus (30 μg/kg) of Atrial Natriuretic Peptide (ANP) was administered. […] Since binding of ANP to its receptor leads to activation of guanylyl cyclase and subsequent production of cyclic guanosine monophosphate (cGMP), the observation of elevated levels of cGMP (>20 nM) in plasma 15 minutes after the IV administration of the ANP bolus was interpreted as evidence of ongoing neprilysin inhibition. Elevated levels plasma cGMP levels 24 hours after dosing is an indicator of the duration pharmacologic effect, analogous to plasma clearance values as indicators of pharmacokinetic persistence.
Plasma samples were extracted with 3 volumes of MeCN containing a suitable internal standard. Extracts were reconstituted into 3 volumes of water containing 1% formic acid. Plasma cGMP and test compound concentrations were quantified in plasma samples by HPLC-coupled mass spectrometric detection.

Where two headings read alike, the source gives them in different places.

What is called bioavailability is the share of a dose that reaches the circulation, judged against a reference dose that is usually intravenous.

With `Cc1cnc(C(=O)N[C@H](Cc2ccc(-c3cc(Cl)ccc3F)cc2)C[C@@H](O)C(=O)O)o1` [Compound 1, (2R,4R)-5-(5′-Chloro-2′-fluorobiphenyl-4-yl)-2-hydroxy-4-[(5-methyloxazole-2-carbonyl)amino]pentanoic Acid], the “CLlast Mean” value in data set [1] (IV) is 4.83 mL/min/kg. Moreover, the AUC(0-t) in data set [1] (male, beagle, plasma, IV) came out at 510 ng·h/mL; in data set [1] (male, beagle, plasma, PO), 530 ng·h/mL. In data set [1] (male, beagle, plasma, PO vs IV AUClast), this compound came in with a bioavailability above 100%. Besides, the “cGMP Concentration 24 hours After Dosing Mean” value on NEP (rat plasma, 15 min after IV ANP bolus (30 μg/kg), average of three determinations) was determined as 112 nM. In addition, at NEP (rat), the “potentiation of cGMP 24 hr after dosing compared to Compounds C2, C3 and C4” value was “more than 2 fold”.
